Test results from US11953435B2, “Zinc-responsive fluorophores” (Northwestern University, priority 2019, dated 2024).
“Also recorded” adds a separate entry of the source.

Biological target: BSA (Bos taurus, UniProt P02769)
Experiment: Interaction of ZincBY probes with proteins (BSA): emission, absorbance, polarization
Assay type: binding
Details: for interaction with BSA (in words) / fluorescence turn-on in response to zinc in the presence of BSA / emission maximum in the presence of BSA: 10 mg/mL BSA; for fluorescence turn-on in response to zinc in the presence of BSA: holo vs apo; for polarization: apo and holo forms
Experimental: Aqueous solutions were prepared by using de-ionized water with resistivity […], obtained using a Milli-Q water purification system. In order to properly compare the photophysical properties of ZincBY-2, ZincBY-3, and ZincBY-4 to ZincBY-1, the photophysical properties of ZincBY-1 we remeasured. Tested values differed from the previously published values (Ref. B2; incorporated by reference in its entirety). It was determined that copper was present in the aqueous buffer used for in vitro analysis of the previous samples. The corrected values are used herein, utilizing buffers that are copper-free. Stock solutions of ZincBY-1, ZincBY-2, ZincBY-3, and ZincBY-4 were prepared at concentrations of 5 mM and stored at −20° C. in aliquots that were used immediately after thawing for each experiment. Unless otherwise stated, all spectroscopic methods were conducted in aqueous buffer containing 50 mM HEPES (pH 7.2) and 0.1 M KNO3. UV-visible spectra were acquired on a PerkinElmer Lambda 650 UV/Vis spectrophotometer using quartz cuvettes from Starna (1 cm path length, 10 cm path length used in extinction coefficient and quantum yield determination). Fluorescence spectra were acquired using a PerkinElmer LS 55 fluorescence spectrophotometer. For measurements containing zinc, 99.0% ZnNO3 hexahydrate (final concentration 5 μM) was used. For experiments analyzing apo probes, N,N,N′,N′-Tetrakis(2-pyridylmethyl)ethylenediamine (TPEN) (final concentration 5 μM) was added to solution. Quantum Yield and Extinction Coefficient Determination. Quantum yields for apo and holo ZincBY-1, ZincBY-2, ZincBY-3, and ZincBY-4 were determined by plotting absorbance vs. fluorescence intensity of solutions containing ZincBY-1, ZincBY-2, ZincBY-3, or ZincBY-4 at probe concentrations ranging from 50-250 nM. Serial dilution was used to make solutions at different concentrations. Fluorescein dissolved in 0.1 N NaOH was used as the quantum yield standard, using a literature-determined quantum yield of 0.95.^3 For all fluorophore solutions, fluorescence excitation was set at 490 nm and fluorescence emission was integrated from 510 nm to 650 nm. Zinc Dissociation Constant. Fluorescence spectra were recorded using zinc probes (ZincBY-1, ZincBY-2, ZincBY-3, or ZincBY-4; 200 nM) and ZnSO4 (various concentrations). The solutions were equilibrated in the dark for 1 h prior to measurement. The concentration of ZnSO4 was varied from 1 μM to 9 mM in buffer solution (50 mM HEPES and 0.1 M KNO3, and pH 7.2) containing 10 mM EGTA. Free Zn^2+ was calculated according to a previously reported method (Ref. B4; incorporated by reference in its entirety). Data was fit to the following one-site binding equation: F=(FminKd+Fmax[Zn^2+])/(Kd+[Zn^2+]) pH Response. The fluorescence spectra of zinc probes (ZincBY-2, ZincBY-3, or ZincBY-4; 200 nM) wasere measured at various pH values (4.5-11). The following buffers were used at 50 mM concentration with 0.1 M KNO3: NaOAc/AcOH (pH 4.0-4.5), MES (pH 5.0-6.5), HEPES (pH 7.0-8.0), CHES (pH 8.5-9.5), CAPS (pH 10.0-11.0). Metal Ion Response. The fluorescence spectra of zinc probes (ZincBY-2, ZincBY-3, or ZincBY-4; 200 nM) were measured in the presence an excess of metal ion including 1 mM KNO3, 1 mM NaNO3, 1 mM CaSO4, 1 mM MgSO4, 15 μM MnSO4, 15 μM (NH4)2Fe(SO4)2, 15 μM NH4Fe(SO4)2, 15 μM CoSO4, 15 μM NiSO4, 15 μM CuSO4, 15 μM [Cu(CH3CN)4]PF6, 15 μM CdSO4, 15 μM Hg(NO3)2, 15 μM Pb(NO3)2, or 15 μM ZnSO4. The fluorescence spectra were compared to that of ZincBY-2 (200 nM), ZincBY-3 (200 nM), or ZincBY-4 (200 nM) in the presence of 10 μM TPEN. Determination of octanol-water partition coefficients (log P). A log P value for each probe was determined by agitating nanomolar solutions of each probe in a 1:1 mixture of HEPES buffer and 1-octanol. Solutions were allowed to settle for 1 h and then the fluorescence intensity of each phase was measured. Standard curves of the fluorescence of known concentrations of probes in both solutions were used to determine concentrations. […]

Chain of BSA (P02769 25-607): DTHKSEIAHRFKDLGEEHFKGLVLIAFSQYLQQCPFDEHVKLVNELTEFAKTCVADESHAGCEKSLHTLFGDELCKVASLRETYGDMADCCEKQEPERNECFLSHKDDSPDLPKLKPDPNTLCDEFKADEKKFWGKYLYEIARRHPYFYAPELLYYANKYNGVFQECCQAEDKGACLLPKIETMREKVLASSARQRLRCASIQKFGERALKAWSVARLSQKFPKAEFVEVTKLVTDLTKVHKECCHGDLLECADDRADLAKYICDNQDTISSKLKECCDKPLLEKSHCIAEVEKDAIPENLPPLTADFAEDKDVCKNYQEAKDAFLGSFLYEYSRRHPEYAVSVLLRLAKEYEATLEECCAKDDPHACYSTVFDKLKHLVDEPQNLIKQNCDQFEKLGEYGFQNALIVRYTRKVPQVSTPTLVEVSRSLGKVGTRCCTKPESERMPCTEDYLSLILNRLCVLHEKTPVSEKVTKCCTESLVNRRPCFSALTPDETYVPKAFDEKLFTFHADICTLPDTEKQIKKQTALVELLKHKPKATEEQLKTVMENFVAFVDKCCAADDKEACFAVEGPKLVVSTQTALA

Row | SMILES | interaction with BSA (in words) | fluorescence turn-on in response to zinc in the presence of BSA | polarization (presence of excess BSA) | polarization (without BSA) | emission maximum in the presence of BSA (apo) [nm] | emission maximum in the presence of BSA (holo, excited at 480 nm) [nm]
1 | CC(=O)NCCOc1ccc2n1[B-](F)(F)[N+]1=C(N(CCN(Cc3ccccn3)Cc3ccccn3)Cc3ccccn3)C=CC1=C2c1c(C)cc(C)cc1C [ZincBY-4, N-(2-((7-((2-(bis(pyridin-2-ylmethyl)amino)ethyl)(pyridin-2-ylmethyl)amino)-5,5-difluoro-10-mesityl-5H-5λ4,6λ4-dipyrrolo[1,2-c:2′,1′-f][1,3,2]diazaborinin-3-yl)oxy)ethyl)acetamide] | binds readily to the lipid transport protein | two-fold increase in fluorescence intensity over its apo form; also recorded: ca. two-fold | 0.37 | 0.03 | 590 | 575
2 | Cc1cc(C)c(C2=C3C=CC(OCCN)=[N+]3[B-](F)(F)n3c2ccc3N(CCN(Cc2ccccn2)Cc2ccccn2)Cc2ccccn2)c(C)c1 [ZincBY-3, N1-(7-(2-aminoethoxy)-5,5-difluoro-10-mesityl-5H-4λ4,5λ4-dipyrrolo[1,2-c:2′,1′-f][1,3,2]diazaborinin-3-yl)-N1,N2,N2-tris(pyridin-2-ylmethyl)ethane-1,2-diamine] | The same interactions can be found |  |  |  |  | 
3 | COc1ccc2n1[B-](F)(F)[N+]1=C(N(CCN(Cc3ccccn3)Cc3ccccn3)Cc3ccccn3)C=CC1=C2c1c(C)cc(C)cc1C [ZincBY-1, reference compound] | The same interactions can be found | the fluorescence of apo-ZincBY-1 matches that of holo-ZincBY-1; also recorded: no fluorescence turn-on was observed |  |  |  | 
4 | Cc1cc(C)c(C2=C3C=CC(OCCN=[N+]=[N-])=[N+]3[B-](F)(F)n3c2ccc3N(CCN(Cc2ccccn2)Cc2ccccn2)Cc2ccccn2)c(C)c1 [ZincBY-2, N1-(7-(2-azidoethoxy)-5,5-difluoro-10-mesityl-5H-4λ4,5λ4-dipyrrolo[1,2-c:2′,1′-f][1,3,2]diazaborinin-3-yl)-N1,N2,N2-tris(pyridin-2-ylmethyl)ethane-1,2-diamine] | The same interactions can be found |  |  |  |  | 
